Test results published in the supplement of paper PMC5908809.

What was measured:
[1] = system: normal primary NK cells, pool 3 (3 donors) (IL-2 2.5 ng/mL); test: drug sensitivity score (DSS) (DSS units); higher = more sensitive; extreme values may be limits of the assay; conditions: 72 h
YT (IL-2 2.5 ng/mL) [2] = test: as above; conditions: 72 h
SNK-6 (IL-2 2.5 ng/mL) [3] = test: as above; conditions: 72 h
IMC-1 (IL-2 20 ng/mL) [4] = test: as above; conditions: 72 h
NK-YS (IL-2 2.5 ng/mL) [5] = test: as above; conditions: 72 h
KAI3 (IL-2 2.5 ng/mL) [6] = test: as above; conditions: 72 h
[7] = system: normal primary NK cells, pool 1 (3 donors) (IL-2 2.5 ng/mL); test: as above; conditions: 72 h
NK-92 (IL-2 2.5 ng/mL) [8] = test: as above; conditions: 72 h
NKL (IL-2 2.5 ng/mL) [9] = test: as above; conditions: 72 h
[10] = system: normal primary NK cells, pool 1 (3 donors), resting (IL-2 0 ng/mL); test: as above; conditions: 72 h
DERL-7 (IL-2 2.5 ng/mL) [11] = test: as above; conditions: 72 h
[12] = system: normal primary NK cells, pool 2 (3 donors) (IL-2 2.5 ng/mL); test: as above; conditions: 72 h
KHYG-1 (IL-2 2.5 ng/mL) [13] = test: as above; conditions: 72 h
[14] = system: normal NK cells expanded with K562-aAPC; test: as above; conditions: 72 h; IL-2 2.5 ng/mL
Experimental: (§1)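 Drug sensitivity and resistance testing on K562-aAPC-expanded normal NK cells: 5 concentrations (10-fold steps over a 10,000-fold range), 72 h at 37 °C, viability by CellTiter-Glo normalised to DMSO and benzethonium chloride controls; DSS from the fitted curve.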

[15] = system: normal NK cells expanded with K562-aAPC; test: percent inhibition of viability; higher = more inhibition; conditions: 72 h, IL-2 2.5 ng/mL
Experimental: as §1

[16] = system: normal primary NK cells, pool 3 (3 donors) (IL-2 2.5 ng/mL); test: as above; conditions: 72 h
YT (IL-2 2.5 ng/mL) [17] = test: as above; conditions: 72 h
SNK-6 (IL-2 2.5 ng/mL) [18] = test: as above; conditions: 72 h
IMC-1 (IL-2 20 ng/mL) [19] = test: as above; conditions: 72 h
NK-YS (IL-2 2.5 ng/mL) [20] = test: as above; conditions: 72 h
KAI3 (IL-2 2.5 ng/mL) [21] = test: as above; conditions: 72 h
[22] = system: normal primary NK cells, pool 1 (3 donors) (IL-2 2.5 ng/mL); test: as above; conditions: 72 h
NK-92 (IL-2 2.5 ng/mL) [23] = test: as above; conditions: 72 h
NKL (IL-2 2.5 ng/mL) [24] = test: as above; conditions: 72 h
[25] = system: normal primary NK cells, pool 1 (3 donors), resting (IL-2 0 ng/mL); test: as above; conditions: 72 h
DERL-7 (IL-2 2.5 ng/mL) [26] = test: as above; conditions: 72 h
[27] = system: normal primary NK cells, pool 2 (3 donors) (IL-2 2.5 ng/mL); test: as above; conditions: 72 h
KHYG-1 (IL-2 2.5 ng/mL) [28] = test: as above; conditions: 72 h

CCCCc1nc2cc(/C=C/C(=O)NO)ccc2n1CCN(CC)CC [Pracinostat] (max concentration tested 10000 nM)
Conditions	drug sensitivity score
DERL-7 (IL-2 2.5 ng/mL) [11]	21.4
IMC-1 (IL-2 20 ng/mL) [4]	19.6
KAI3 (IL-2 2.5 ng/mL) [6]	25.4
KHYG-1 (IL-2 2.5 ng/mL) [13]	22.1
NK-92 (IL-2 2.5 ng/mL) [8]	23.6
NK-YS (IL-2 2.5 ng/mL) [5]	20.3
NKL (IL-2 2.5 ng/mL) [9]	24.6
SNK-6 (IL-2 2.5 ng/mL) [3]	20.1
YT (IL-2 2.5 ng/mL) [2]	20.1
[1]	19.9
[7]	21.1
[10]	22.5
[12]	20.6
[14]	21.7

percent inhibition of viability [%]
Conditions	1 nM	10 nM	100 nM	1000 nM	10000 nM
DERL-7 (IL-2 2.5 ng/mL) [26]	1.33	-8.53	21.4	100	100
IMC-1 (IL-2 20 ng/mL) [19]	-2.79	2.79	10	100	101
KAI3 (IL-2 2.5 ng/mL) [21]	-0.25	10.9	59.8	100	106
KHYG-1 (IL-2 2.5 ng/mL) [28]	0.14	-0.26	26.9	103	107
NK-92 (IL-2 2.5 ng/mL) [23]	0.01	-2.17	42.9	103	107
NK-YS (IL-2 2.5 ng/mL) [20]	-2.5	3.97	26.5	93.4	106
NKL (IL-2 2.5 ng/mL) [24]	-9.49	12.2	57	92.3	105
SNK-6 (IL-2 2.5 ng/mL) [18]	-6.98	1.26	17.8	96.5	100
YT (IL-2 2.5 ng/mL) [17]	2.35	-0.3	12.7	100	105
[15]	1.37	8.83	23.6	100	101
[16]	-9.56	-4.29	13.1	97.8	98.9
[22]	-0.69	-4.78	22.1	96.7	97.5
[25]	0.06	-6.1	49.2	86.2	90.8
[27]	-8.41	-3.58	22.6	94.5	94.8

CCC(C)n1ncn(-c2ccc(N3CCN(c4ccc(OCC5COC(Cn6cncn6)(c6ccc(Cl)cc6Cl)O5)cc4)CC3)cc2)c1=O (configuration not stated) [Itraconazole] (max concentration tested 5000 nM)
Conditions	drug sensitivity score
DERL-7 (IL-2 2.5 ng/mL) [11]	6.05
IMC-1 (IL-2 20 ng/mL) [4]	2.54
KAI3 (IL-2 2.5 ng/mL) [6]	7.24
KHYG-1 (IL-2 2.5 ng/mL) [13]	6.51
NK-92 (IL-2 2.5 ng/mL) [8]	10.1
NK-YS (IL-2 2.5 ng/mL) [5]	5.2
NKL (IL-2 2.5 ng/mL) [9]	4.25
SNK-6 (IL-2 2.5 ng/mL) [3]	10.3
YT (IL-2 2.5 ng/mL) [2]	2.44
[1]	2.08
[7]	2.13
[10]	0.93
[12]	2.45
[14]	1.9

percent inhibition of viability [%]
Conditions	0.5 nM	5 nM	50 nM	500 nM	5000 nM
DERL-7 (IL-2 2.5 ng/mL) [26]	7.65	4.19	-0.11	8.64	83.6
IMC-1 (IL-2 20 ng/mL) [19]	-1.82	-3.66	-2.37	9.1	29.4
KAI3 (IL-2 2.5 ng/mL) [21]	6.2	-4.32	-3.2	12.8	91.9
KHYG-1 (IL-2 2.5 ng/mL) [28]	-2.72	3.74	1.39	6.98	98.1
NK-92 (IL-2 2.5 ng/mL) [23]	-7.29	-11.1	-8.89	38.2	91.5
NK-YS (IL-2 2.5 ng/mL) [20]	3.15	-1.22	-1.67	8.46	68.9
NKL (IL-2 2.5 ng/mL) [24]	6.31	-2.93	-3.73	-6.13	84.8
SNK-6 (IL-2 2.5 ng/mL) [18]	-8.18	3.54	19.4	39.2	93.4
YT (IL-2 2.5 ng/mL) [17]	-3.86	-5.55	-5.66	0.63	45.8
[15]	-0.18	-0.93	0.65	2.54	33
[16]	-9.47	-2.98	-1.54	12.1	22.5
[22]	-10.8	-2.66	-5.12	4.85	30.5
[25]	-22.8	-11.8	-19.2	-4.28	28.1
[27]	0.8	-6.34	8.01	14.5	25.8

Cn1cc(-c2ccc3nnc(C(F)(F)c4ccc5ncccc5c4)n3n2)cn1 (max concentration tested 10000 nM)
Conditions	drug sensitivity score
DERL-7 (IL-2 2.5 ng/mL) [11]	0
IMC-1 (IL-2 20 ng/mL) [4]	1.63
KAI3 (IL-2 2.5 ng/mL) [6]	0
KHYG-1 (IL-2 2.5 ng/mL) [13]	0
NK-92 (IL-2 2.5 ng/mL) [8]	2.9
NK-YS (IL-2 2.5 ng/mL) [5]	0
NKL (IL-2 2.5 ng/mL) [9]	2.43
SNK-6 (IL-2 2.5 ng/mL) [3]	5.6
YT (IL-2 2.5 ng/mL) [2]	0.87
[1]	0
[7]	0
[10]	0
[12]	0
[14]	0.71

percent inhibition of viability [%]
Conditions	1 nM	10 nM	100 nM	1000 nM	10000 nM
DERL-7 (IL-2 2.5 ng/mL) [26]	-6.47	1.35	-5.46	-8.39	-0.31
IMC-1 (IL-2 20 ng/mL) [19]	2.83	3.66	7.99	14.2	18.1
KAI3 (IL-2 2.5 ng/mL) [21]	3.43	0.25	2.09	1.51	5.42
KHYG-1 (IL-2 2.5 ng/mL) [28]	0.7	1.87	-1.15	9.39	7.11
NK-92 (IL-2 2.5 ng/mL) [23]	3.19	2.36	1.58	20	16.7
NK-YS (IL-2 2.5 ng/mL) [20]	-0.7	-2.18	-0.71	3.19	6.06
NKL (IL-2 2.5 ng/mL) [24]	15.6	0.97	2.69	5.68	32.8
SNK-6 (IL-2 2.5 ng/mL) [18]	-5.06	-3.02	-0.1	27.9	44
YT (IL-2 2.5 ng/mL) [17]	2.08	2.01	-0.66	8.07	15.4
[15]	2.09	-3.72	2.32	3.57	16.4
[16]	-11.6	-17.9	-6.24	0.44	0.55
[22]	-10.8	-1.09	-9.66	-1.21	4
[25]	-30.2	-15.2	-20.6	-28.2	-14.9
[27]	-8.18	-11	-4.17	-3.65	7.05
